Laboratory results taken from article PMC9274761, “Effects of Structurally Different HDAC Inhibitors against Trypanosoma cruzi, Leishmania, and Schistosoma mansoni” (ACS Infectious Diseases, 2022).
Where “and” joins values, the source holds several entries; their conditions need not be identical. Identical values can stand only once. Like-named read-outs stand apart in the source and are kept apart here.

Columns and labels:
[1] = tested on: newly transformed schistosomula (NTS); experiment: Phenotypic screening on newly transformed schistosomula (NTS); format: cell-based, Schistosoma mansoni; settings: for IC50: Schistosoma mansoni, 72 h, read-out: IC50, viability of NTS
[2] = tested on: S. mansoni adult worms; experiment: Phenotypic screening on S. mansoni adult worms; format: cell-based, Schistosoma mansoni; settings: 72 h
[3] = MTT viability assay in RPE cells; format: cell-based, human; settings: human, retinal pigment epithelial (RPE) cells, read-out: percentage of RPE cell viability, 48 h
[4] = tested on: human retinal pigment epithelial (RPE) cells; experiment: MTT viability assay in RPE cells; format: cell-based; settings: Homo sapiens, RPE, 48 h, read-out: IC50 in RPE cells (cell viability)
[5] = tested on: T. cruzi amastigotes and trypomastigotes; experiment: T. cruzi infection assay in L929 cells (beta-galactosidase Tulahuen strain); format: cell-based, Trypanosoma cruzi; settings: for selectivity index (SI), CC50/EC50: L929 CC50 / T. cruzi EC50; for EC50 / EC50, growth of T. cruzi amastigotes and trypomastigotes: mean ± SD; for EC50: read-out: EC50, growth of T. cruzi amastigotes and trypomastigotes
[6] = tested on: L. amazonensis promastigotes; experiment: Resazurin reduction assay, L. amazonensis promastigotes; format: cell-based; settings: Leishmania amazonensis, read-out: percentage of inhibition, L. amazonensis promastigotes
[7] = in vitro; settings: mouse
[8] = tested on: L. amazonensis amastigotes in primary mouse macrophages; settings: 10 μM, 3 days, toxic = toxic for macrophages
[9] = tested on: L. donovani axenic amastigotes; experiment: Resazurin reduction assay, L. donovani axenic amastigotes; format: cell-based; settings: Leishmania donovani, read-out: percentage of inhibition, L. donovani axenic amastigotes
[10] = tested on: L. donovani promastigotes; experiment: Resazurin reduction assay, L. donovani promastigotes; format: cell-based; settings: Leishmania donovani, read-out: percentage of inhibition, L. donovani promastigotes
[11] = Trypanosoma cruzi, L929, 96 h, infected L929 cells, 96 h
[12] = noninfected L929 fibroblast cells
[13] = 40 μM, infected L929 cells, 96 h, toxic = L929 death
[14] = 80 μM, infected L929 cells, 96 h, toxic = L929 death
[15] = 160 μM, infected L929 cells, 96 h, toxic = L929 death
[16] = Trypanosoma cruzi, infected L929 cells, 96 h, read-out: percentage of T. cruzi growth inhibition
[17] = Trypanosoma cruzi, 2.5 μM, infected L929 cells, 96 h, toxic = L929 death, read-out: percentage of T. cruzi growth inhibition
[18] = Trypanosoma cruzi, 5 μM, infected L929 cells, 96 h, toxic = L929 death, read-out: percentage of T. cruzi growth inhibition
[19] = Trypanosoma cruzi, 10 μM, infected L929 cells, 96 h, toxic = L929 death, read-out: percentage of T. cruzi growth inhibition
[20] = Trypanosoma cruzi, 20 μM, infected L929 cells, 96 h, toxic = L929 death, read-out: percentage of T. cruzi growth inhibition
[21] = 10 μM, infected L929 cells, 96 h, toxic = L929 death
[22] = 20 μM, infected L929 cells, 96 h, toxic = L929 death

SMILES | percentage of NTS activity, 72 h ([1]; 1 μM) | percentage of NTS activity, 72 h ([1]; 10 μM) | percentage of NTS activity, 72 h ([1]; 20 μM) | IC50 [1] | percentage of activity (death induction), S. mansoni adult worms ([2]; 10 μM) | percentage of activity (death induction), S. mansoni adult worms ([2]; 20 μM) | viability at 48 h, 1 µM [3] | viability at 48 h, 5 µM [3] | viability at 48 h, 10 µM [3] | viability at 48 h, 25 µM [3] | viability at 48 h, 50 µM [3] | IC50 [4] | CC50 at 96 h [7, 12] | percentage of T. cruzi growth inhibition [5, 13] | percentage of T. cruzi growth inhibition [5, 14] | percentage of T. cruzi growth inhibition [5, 15] | inhibition at 1.25 µM [5, 16] | inhibition at 2.5 µM [5, 17] | inhibition at 5 µM [5, 18] | EC50, growth of T. cruzi amastigotes and trypomastigotes ([5]; infected L929 cells, 96 h) | also measured
CC(C)(C)OC(=O)Nc1ccc(C(=O)/C=C/c2ccc(/C=C/C(=O)NO)cc2)cc1 [Compound 20] | 22.0 ± 1.0% | 100.0 ± 0.0% | 100.0 ± 0.0% | 1.32 µM | 31.3 ± 2.0% | 40.5 ± 2.6% | 80 ± 11% | 71.6 ± 9.2% | 63 ± 6% | 59.5 ± 2.4% | 45.6 ± 4.8% | 27.2 µM |  |  |  |  |  |  |  |  | 
O=C(Cn1ccnc1[N+](=O)[O-])NCc1ccccc1 [BZN, benznidazole, reference compound] |  |  |  |  |  |  |  |  |  |  |  |  |  |  |  |  |  |  |  |  | selectivity index (SI), CC50/EC50 [5]: 625; EC50 [5, 11]: 3.8 µM
O=C(CCCCSc1nc(-c2ccc(-c3ccccc3)cc2)cc(=O)[nH]1)NO [Compound 1] |  | 29.3 ± 0.9% | 43.3 ± 1.9% | > 20 µM |  |  |  |  |  |  |  |  | 20 µM | toxic | toxic | toxic ^e | 0% | 0% | 0% | inactive | inhibition at 20 µM [6]: 2.1 ± 3.2%; HCA outcome against intramacrophagic L. amazonensis amastigotes [8]: toxic; inhibition at 10 µM [5, 19]: 0%; inhibition at 20 µM [5, 20]: 0%; inhibition at 20 µM [9]: 29 ± 14%
CC(C)(C)OC(=O)Nc1cccc(C(=O)/C=C/c2ccc(C(=O)NO)cc2)c1 [Compound 19] | 24.0 ± 0.0% | 100.0 ± 0.0% | 100.0 ± 0.0% | 1.29 µM |  | 58.6 ± 0% | 75.6 ± 16.9% | 80.5 ± 13.7% | 82 ± 12.3% | 68.6 ± 1.3% | 52.8 ± 16.1% | 48.7 µM |  |  |  |  |  |  |  |  | 
CC(C)(C)OC(=O)Nc1ccc(C(=O)/C=C/c2ccc(C(=O)NO)cc2)cc1 [Compound 18] | 26.0 ± 1.0% | 100.0 ± 0.0% | 100.0 ± 0.0% | 1.26 µM | 43.1 ± 2.0% | 56.0 ± 7.8% | 67.9 ± 4.2% | 73.8 ± 3.3% | 71 ± 7.8% | 50.3 ± 7.4% | 43.1 ± 0.1% | 24.7 µM |  |  |  |  |  |  |  |  | 
O=C(/C=C/c1ccc(Cc2nnc(Cc3cccc4ccccc34)o2)cc1)NO [Compound 7] |  | 38.0 ± 1.2% | 39.4 ± 1.0% | > 20 µM |  |  |  |  |  |  |  |  | 5 µM | toxic | toxic | toxic | 0% | 0% | 21% | inactive | percentage of T. cruzi growth inhibition [5, 21]: toxic; percentage of T. cruzi growth inhibition [5, 22]: toxic
O=C(/C=C/c1ccc(NC(=O)Cc2cccc3ccccc23)cn1)NO [Compound 5] |  | 31.0 ± 0.0% | 30.8 ± 0.0% | > 20 µM |  |  |  |  |  |  |  |  | 1.25 µM | toxic | toxic | toxic | 0% |  |  | inactive | percentage of T. cruzi growth inhibition ([5]; 2.5 μM, infected L929 cells, 96 h, toxic = L929 death): toxic; percentage of T. cruzi growth inhibition ([5]; 5 μM, infected L929 cells, 96 h, toxic = L929 death): toxic; percentage of T. cruzi growth inhibition [5, 21]: toxic; percentage of T. cruzi growth inhibition [5, 22]: toxic
CC(C)(C)OC(=O)Nc1cccc(C(=O)/C=C/c2ccc(/C=C/C(=O)NO)cc2)c1 [Compound 4] | 24% and 24.0 ± 0.0% | 100% and 100.0 ± 0.0% | 100% and 100.0 ± 0.0% | 1.29 µM | 45.1 ± 3.9% | 63.8 ± 0% | 75.7 ± 11.4% | 71.5 ± 12.8% | 50.2 ± 8.4% | 40.4 ± 9.8% | 45.2 ± 6.6% | 15.6 µM | 5 µM | toxic | toxic | toxic | 0% | 0% | 85% |  | inhibition at 0.8 µM [6]: 10.5 ± 2.9%; inhibition at 4 µM [6]: 95.7 ± 0.3%; inhibition at 20 µM [6]: 97.9 ± 0.4%; HCA outcome against intramacrophagic L. amazonensis amastigotes [8]: toxic; percentage of T. cruzi growth inhibition [5, 21]: toxic; percentage of T. cruzi growth inhibition [5, 22]: toxic; selectivity index (SI), CC50/EC50 [5]: 1.25; EC50 [5, 11]: 4 ± 0.07 µM; inhibition at 0.8 µM [9]: 39.5 ± 2%; inhibition at 4 µM [9]: 61.4 ± 4.3%; inhibition at 20 µM [9]: 93.6 ± 0.4%; inhibition at 20 µM [10]: 95.9 ± 0.3%
Cn1c(/C=C/C(=O)c2ccc(NC(=O)OC(C)(C)C)cc2)ccc1C(=O)NO [Compound 17] | 28.0 ± 0.0% | 100.0 ± 0.0% | 100.0 ± 0.0% | 1.23 µM |  | 58.6 ± 0% | 74.2 ± 5.2% | 91.8 ± 11.5% | 102 ± 15.2% | 91.9 ± 4.5% | 77.4 ± 2.3% | > 50 µM |  |  |  |  |  |  |  |  | 
Nc1ccccc1NC(=O)c1ccc(CNC(=O)OCc2cccnc2)cc1 [Compound 9, entinostat, reference compound] |  | 40.0 ± 2.0% | 42.3 ± 0.0% | > 20 µM |  |  |  |  |  |  |  |  |  | toxic | toxic | toxic | 0% | 0% | 0% | inactive | CC50 at 96 h [7]: 20 µM; HCA outcome against intramacrophagic L. amazonensis amastigotes [8]: toxic; inhibition at 10 µM [5, 19]: 0%; inhibition at 20 µM [5, 20]: 0%; inhibition at 0.8 µM [9]: 6.7 ± 3.8%; inhibition at 4 µM [9]: 2.9 ± 10.1%; inhibition at 20 µM [9]: 28.9 ± 0.9%
CC1=C(/C=C/C(C)=C/C=C/C(C)=C/C(=O)Nc2ccccc2N)C(C)(C)CCC1 [Compound 8] |  | 37.9 ± 0.0% | 70% and 71.1 ± 1.0% | 12.8 µM | 36.1 ± 2.8% | 52.8 ± 2.8% | 95.3 ± 28.7% | 115 ± 9.4% | 90.4 ± 16.7% | 98.8 ± 4.6% | 72 ± 5.8% | > 50 µM | 80 µM |  |  | toxic | 0% | 0% | 7% |  | inhibition at 0.8 µM [6]: 8.1 ± 2.1%; inhibition at 4 µM [6]: 8.3 ± 3.4%; selectivity index (SI), CC50/EC50 [5]: 5.7; EC50 [5, 11]: 13.9 µM; inhibition at 10 µM [5, 19]: 32%; inhibition at 20 µM [5, 20]: 78%; inhibition at 40 µM ([5]; Trypanosoma cruzi, 40 μM, infected L929 cells, 96 h, toxic = L929 death, read-out: percentage of T. cruzi growth inhibition): 76%; inhibition at 80 µM ([5]; Trypanosoma cruzi, 80 μM, infected L929 cells, 96 h, toxic = L929 death, read-out: percentage of T. cruzi growth inhibition): 88%; EC50 ([5]; infected L929 cells, 96 h): 14 ± 3.4 µM; inhibition at 0.8 µM [9]: 4.3 ± 1.1%; inhibition at 4 µM [9]: 5.8 ± 2.5%; inhibition at 20 µM [9]: 41.8 ± 1.4%; inhibition at 0.8 µM ([10]; 0.8 μM): 2.3 ± 1.4%; inhibition at 20 µM [10]: 6.3 ± 1.7%
